Assays:
[1] = target: Activin receptor type-1 (Homo sapiens) (UniProt Q04771); conditions: Compound concentration 1000.0 nM
[2] = target: RAC-gamma serine/threonine-protein kinase (Homo sapiens) (UniProt Q9Y243); conditions: Compound concentration 1000.0 nM
[3] = target: BMP-2-inducible protein kinase (Homo sapiens) (UniProt Q9NSY1); conditions: Compound concentration 1000.0 nM
[4] = target: Tyrosine-protein kinase Blk (Homo sapiens) (UniProt P51451); conditions: Compound concentration 1000.0 nM
[5] = target: Mitotic checkpoint serine/threonine-protein kinase BUB1 (Homo sapiens) (UniProt O43683); conditions: Compound concentration 1000.0 nM
[6] = target: Calcium/calmodulin-dependent protein kinase type II subunit beta (Homo sapiens) (UniProt Q13554); conditions: Compound concentration 1000.0 nM
[7] = target: Cyclin-dependent kinase 19 (Homo sapiens) (UniProt Q9BWU1); conditions: Compound concentration 1000.0 nM
[8] = target: Cyclin-dependent kinase 5 (Homo sapiens) (UniProt Q00535); conditions: Compound concentration 1000.0 nM
[9] = target: Cyclin-dependent kinase-like 2 (Homo sapiens) (UniProt Q92772); conditions: Compound concentration 1000.0 nM
[10] = target: Dual specificity protein kinase CLK2 (Homo sapiens) (UniProt P49760); conditions: Compound concentration 1000.0 nM
[11] = target: Dual specificity protein kinase CLK3 (Homo sapiens) (UniProt P49761); conditions: Compound concentration 1000.0 nM
[12] = target: Casein kinase I isoform gamma-2 (Homo sapiens) (UniProt P78368); conditions: Compound concentration 1000.0 nM
[13] = target: Megakaryocyte-associated tyrosine-protein kinase (Homo sapiens) (UniProt P42679); conditions: Compound concentration 1000.0 nM
[14] = target: Ephrin type-A receptor 3 (Homo sapiens) (UniProt P29320); conditions: Compound concentration 1000.0 nM
[15] = test system: Receptor-type tyrosine-protein kinase FLT3 (Homo sapiens), P36888 [UNDEFINED MUTATION]; conditions: Compound concentration 1000.0 nM
[16] = target: Tyrosine-protein kinase FRK (Homo sapiens) (UniProt P42685); conditions: Compound concentration 1000.0 nM
[17] = target: G protein-coupled receptor kinase 4 (Homo sapiens) (UniProt P32298); conditions: Compound concentration 1000.0 nM
[18] = target: Glycogen synthase kinase-3 alpha (Homo sapiens) (UniProt P49840); conditions: Compound concentration 1000.0 nM
[19] = target: Homeodomain-interacting protein kinase 4 (Homo sapiens) (UniProt Q8NE63); conditions: Compound concentration 1000.0 nM
[20] = target: Serine/threonine-protein kinase ICK (Homo sapiens) (UniProt Q9UPZ9); conditions: Compound concentration 1000.0 nM
[21] = target: Inhibitor of nuclear factor kappa-B kinase subunit epsilon (Homo sapiens) (UniProt Q14164); conditions: Compound concentration 1000.0 nM
[22] = target: Interleukin-1 receptor-associated kinase 4 (Homo sapiens) (UniProt Q9NWZ3); conditions: Compound concentration 1000.0 nM
[23] = target: Serine/threonine-protein kinase 10 (Homo sapiens) (UniProt O94804); conditions: Compound concentration 1000.0 nM
[24] = target: Dual specificity mitogen-activated protein kinase kinase 2 (Homo sapiens) (UniProt P36507); conditions: Compound concentration 1000.0 nM
[25] = target: Serine/threonine-protein kinase MRCK alpha (Homo sapiens) (UniProt Q5VT25); conditions: Compound concentration 1000.0 nM
[26] = target: Serine/threonine-protein kinase 38-like (Homo sapiens) (UniProt Q9Y2H1); conditions: Compound concentration 1000.0 nM
[27] = target: Serine/threonine-protein kinase Nek10 (Homo sapiens) (UniProt Q6ZWH5); conditions: Compound concentration 1000.0 nM
[28] = target: Mitogen-activated protein kinase 12 (Homo sapiens) (UniProt P53778); conditions: Compound concentration 1000.0 nM
[29] = target: Serine/threonine-protein kinase PAK 1 (Homo sapiens) (UniProt Q13153); conditions: Compound concentration 1000.0 nM
[30] = target: Cyclin-dependent kinase 16 (Homo sapiens) (UniProt Q00536); conditions: Compound concentration 1000.0 nM
[31] = target: Cyclin-dependent kinase 17 (Homo sapiens) (UniProt Q00537); conditions: Compound concentration 1000.0 nM
[32] = target: Platelet-derived growth factor receptor beta (Homo sapiens) (UniProt P09619); conditions: Compound concentration 1000.0 nM
[33] = target: Phosphatidylinositol 4,5-bisphosphate 3-kinase catalytic subunit alpha isoform (Homo sapiens) (UniProt P42336); conditions: Compound concentration 1000.0 nM
[34] = target: Serine/threonine-protein kinase pim-2 (Homo sapiens) (UniProt Q9P1W9); conditions: Compound concentration 1000.0 nM
[35] = target: Protein kinase C delta type (Homo sapiens) (UniProt Q05655); conditions: Compound concentration 1000.0 nM
[36] = target: Ribosomal protein S6 kinase alpha-3 (Homo sapiens) (UniProt P51812); conditions: Compound concentration 1000.0 nM
[37] = target: Serine/threonine-protein kinase SIK1 (Homo sapiens) (UniProt P57059); conditions: Compound concentration 1000.0 nM
[38] = target: STE20/SPS1-related proline-alanine-rich protein kinase (Homo sapiens) (UniProt Q9UEW8); conditions: Compound concentration 1000.0 nM
[39] = target: Serine/threonine-protein kinase TAO1 (Homo sapiens) (UniProt Q7L7X3); conditions: Compound concentration 1000.0 nM
[40] = target: Serine/threonine-protein kinase VRK2 (Homo sapiens) (UniProt Q86Y07); conditions: Compound concentration 1000.0 nM
[41] = target: Beta-3 adrenergic receptor (Homo sapiens) (UniProt P13945); conditions: Compound concentration 10.0 uM

Sequence of Cyclin-dependent kinase 19 (Homo sapiens) (Q9BWU1 whole entry): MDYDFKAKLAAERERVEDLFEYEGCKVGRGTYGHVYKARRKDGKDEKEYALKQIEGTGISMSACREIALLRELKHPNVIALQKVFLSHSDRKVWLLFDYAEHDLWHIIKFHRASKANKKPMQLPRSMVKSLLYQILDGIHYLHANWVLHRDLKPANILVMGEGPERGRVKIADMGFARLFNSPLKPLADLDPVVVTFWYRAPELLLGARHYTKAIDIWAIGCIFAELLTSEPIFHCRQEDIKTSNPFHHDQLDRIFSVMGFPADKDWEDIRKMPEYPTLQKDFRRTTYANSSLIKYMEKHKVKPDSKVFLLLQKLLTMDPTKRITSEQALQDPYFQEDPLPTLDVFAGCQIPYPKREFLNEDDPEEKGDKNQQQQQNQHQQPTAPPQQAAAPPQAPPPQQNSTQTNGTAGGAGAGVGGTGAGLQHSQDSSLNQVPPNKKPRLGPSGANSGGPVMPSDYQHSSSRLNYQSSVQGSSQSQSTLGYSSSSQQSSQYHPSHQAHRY
Sequence of Phosphatidylinositol 4,5-bisphosphate 3-kinase catalytic subunit alpha isoform (Homo sapiens) (P42336 whole entry, canonical isoform): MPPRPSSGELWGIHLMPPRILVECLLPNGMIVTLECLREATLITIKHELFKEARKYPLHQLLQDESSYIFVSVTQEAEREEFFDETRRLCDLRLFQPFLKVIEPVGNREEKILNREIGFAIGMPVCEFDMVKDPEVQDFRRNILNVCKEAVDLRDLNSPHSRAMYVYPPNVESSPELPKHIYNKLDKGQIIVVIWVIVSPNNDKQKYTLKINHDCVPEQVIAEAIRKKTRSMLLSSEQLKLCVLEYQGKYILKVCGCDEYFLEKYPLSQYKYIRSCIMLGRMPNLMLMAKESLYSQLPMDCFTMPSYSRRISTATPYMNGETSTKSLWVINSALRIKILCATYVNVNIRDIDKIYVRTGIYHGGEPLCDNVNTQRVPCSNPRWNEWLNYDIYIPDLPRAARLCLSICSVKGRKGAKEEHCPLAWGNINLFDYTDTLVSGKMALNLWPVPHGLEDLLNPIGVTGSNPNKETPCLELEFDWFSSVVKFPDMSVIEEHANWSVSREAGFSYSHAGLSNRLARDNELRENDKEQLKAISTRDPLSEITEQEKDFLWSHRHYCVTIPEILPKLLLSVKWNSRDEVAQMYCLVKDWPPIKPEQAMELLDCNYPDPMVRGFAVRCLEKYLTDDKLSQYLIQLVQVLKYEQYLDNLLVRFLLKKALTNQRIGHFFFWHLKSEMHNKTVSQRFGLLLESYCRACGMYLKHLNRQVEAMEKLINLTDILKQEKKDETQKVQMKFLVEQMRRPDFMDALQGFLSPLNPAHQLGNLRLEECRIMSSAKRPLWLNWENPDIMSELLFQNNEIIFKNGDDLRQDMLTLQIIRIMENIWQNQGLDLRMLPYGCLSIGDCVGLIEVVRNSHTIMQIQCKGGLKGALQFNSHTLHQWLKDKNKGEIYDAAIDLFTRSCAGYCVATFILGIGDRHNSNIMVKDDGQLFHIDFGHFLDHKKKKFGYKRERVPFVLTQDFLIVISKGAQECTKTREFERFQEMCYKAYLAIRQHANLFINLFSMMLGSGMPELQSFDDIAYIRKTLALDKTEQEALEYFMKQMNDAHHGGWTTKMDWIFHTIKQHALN
Sequence of G protein-coupled receptor kinase 4 (Homo sapiens) (P32298 whole entry, looked up): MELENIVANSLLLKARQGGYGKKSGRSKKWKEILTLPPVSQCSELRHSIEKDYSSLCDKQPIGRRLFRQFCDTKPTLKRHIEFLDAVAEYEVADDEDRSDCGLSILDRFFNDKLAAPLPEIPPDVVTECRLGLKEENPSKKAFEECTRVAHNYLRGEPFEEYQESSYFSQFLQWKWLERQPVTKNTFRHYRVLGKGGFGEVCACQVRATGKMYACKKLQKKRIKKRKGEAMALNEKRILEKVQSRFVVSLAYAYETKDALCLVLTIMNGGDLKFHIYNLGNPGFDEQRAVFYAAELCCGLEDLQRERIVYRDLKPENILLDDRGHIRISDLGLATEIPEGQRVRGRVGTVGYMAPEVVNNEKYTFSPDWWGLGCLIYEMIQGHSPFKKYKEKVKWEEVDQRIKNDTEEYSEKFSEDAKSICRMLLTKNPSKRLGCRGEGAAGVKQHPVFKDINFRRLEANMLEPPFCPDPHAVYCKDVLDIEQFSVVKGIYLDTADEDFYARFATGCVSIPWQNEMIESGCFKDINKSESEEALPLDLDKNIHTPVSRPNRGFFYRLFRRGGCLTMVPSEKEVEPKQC
Sequence of Interleukin-1 receptor-associated kinase 4 (Homo sapiens) (Q9NWZ3 whole entry): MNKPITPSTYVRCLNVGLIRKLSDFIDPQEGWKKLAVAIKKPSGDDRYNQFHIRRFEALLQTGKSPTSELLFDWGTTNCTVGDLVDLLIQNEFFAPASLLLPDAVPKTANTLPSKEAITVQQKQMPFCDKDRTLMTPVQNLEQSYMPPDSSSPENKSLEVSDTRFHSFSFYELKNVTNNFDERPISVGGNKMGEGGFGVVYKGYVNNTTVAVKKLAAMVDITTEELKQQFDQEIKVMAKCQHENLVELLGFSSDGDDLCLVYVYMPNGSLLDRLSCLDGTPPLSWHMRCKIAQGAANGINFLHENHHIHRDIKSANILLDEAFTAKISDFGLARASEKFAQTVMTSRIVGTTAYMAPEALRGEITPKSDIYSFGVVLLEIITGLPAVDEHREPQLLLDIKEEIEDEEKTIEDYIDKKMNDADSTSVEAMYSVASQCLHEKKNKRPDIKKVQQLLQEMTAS
Sequence of Glycogen synthase kinase-3 alpha (Homo sapiens) (P49840 2-483 limits assumed): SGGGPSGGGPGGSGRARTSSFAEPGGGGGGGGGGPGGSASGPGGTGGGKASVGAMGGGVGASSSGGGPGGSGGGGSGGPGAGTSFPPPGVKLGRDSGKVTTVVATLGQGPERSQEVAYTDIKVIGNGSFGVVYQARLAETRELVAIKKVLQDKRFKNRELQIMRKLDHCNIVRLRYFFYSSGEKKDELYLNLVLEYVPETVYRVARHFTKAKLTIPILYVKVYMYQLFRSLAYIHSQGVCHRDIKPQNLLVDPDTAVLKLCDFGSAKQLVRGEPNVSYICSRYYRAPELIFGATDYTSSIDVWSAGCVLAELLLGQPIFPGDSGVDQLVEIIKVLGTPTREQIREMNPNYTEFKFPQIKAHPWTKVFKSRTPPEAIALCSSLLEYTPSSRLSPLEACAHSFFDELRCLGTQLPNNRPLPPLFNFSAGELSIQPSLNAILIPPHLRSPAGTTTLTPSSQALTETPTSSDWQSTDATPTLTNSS
Sequence of Cyclin-dependent kinase 16 (Homo sapiens) (Q00536 whole entry): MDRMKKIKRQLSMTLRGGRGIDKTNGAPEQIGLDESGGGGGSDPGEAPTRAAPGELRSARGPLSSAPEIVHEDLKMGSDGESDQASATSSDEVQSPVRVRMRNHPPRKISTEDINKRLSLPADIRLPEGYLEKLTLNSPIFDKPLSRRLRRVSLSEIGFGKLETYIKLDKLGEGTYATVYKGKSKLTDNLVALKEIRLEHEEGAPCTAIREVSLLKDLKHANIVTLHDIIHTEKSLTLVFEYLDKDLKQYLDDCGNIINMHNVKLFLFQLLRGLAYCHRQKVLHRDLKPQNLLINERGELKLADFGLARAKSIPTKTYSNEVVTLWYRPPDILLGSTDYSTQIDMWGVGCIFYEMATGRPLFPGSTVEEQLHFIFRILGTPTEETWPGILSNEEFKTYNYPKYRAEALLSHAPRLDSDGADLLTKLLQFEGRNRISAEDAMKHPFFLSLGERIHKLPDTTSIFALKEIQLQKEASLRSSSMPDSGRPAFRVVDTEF
Sequence of Cyclin-dependent kinase-like 2 (Homo sapiens) (Q92772 whole entry): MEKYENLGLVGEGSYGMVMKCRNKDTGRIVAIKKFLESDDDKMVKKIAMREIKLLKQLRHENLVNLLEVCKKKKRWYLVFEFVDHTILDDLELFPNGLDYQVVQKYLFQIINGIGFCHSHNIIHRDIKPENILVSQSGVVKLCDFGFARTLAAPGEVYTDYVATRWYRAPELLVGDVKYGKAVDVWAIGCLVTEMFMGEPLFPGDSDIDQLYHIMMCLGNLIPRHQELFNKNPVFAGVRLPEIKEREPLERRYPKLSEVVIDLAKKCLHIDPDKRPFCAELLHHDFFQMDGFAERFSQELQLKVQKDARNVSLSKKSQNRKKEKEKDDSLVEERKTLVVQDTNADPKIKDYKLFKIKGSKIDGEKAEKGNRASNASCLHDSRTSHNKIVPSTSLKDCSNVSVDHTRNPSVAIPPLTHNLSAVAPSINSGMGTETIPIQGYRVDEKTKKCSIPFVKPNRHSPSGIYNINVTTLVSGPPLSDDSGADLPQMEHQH
Sequence of Homeodomain-interacting protein kinase 4 (Homo sapiens) (Q8NE63 whole entry): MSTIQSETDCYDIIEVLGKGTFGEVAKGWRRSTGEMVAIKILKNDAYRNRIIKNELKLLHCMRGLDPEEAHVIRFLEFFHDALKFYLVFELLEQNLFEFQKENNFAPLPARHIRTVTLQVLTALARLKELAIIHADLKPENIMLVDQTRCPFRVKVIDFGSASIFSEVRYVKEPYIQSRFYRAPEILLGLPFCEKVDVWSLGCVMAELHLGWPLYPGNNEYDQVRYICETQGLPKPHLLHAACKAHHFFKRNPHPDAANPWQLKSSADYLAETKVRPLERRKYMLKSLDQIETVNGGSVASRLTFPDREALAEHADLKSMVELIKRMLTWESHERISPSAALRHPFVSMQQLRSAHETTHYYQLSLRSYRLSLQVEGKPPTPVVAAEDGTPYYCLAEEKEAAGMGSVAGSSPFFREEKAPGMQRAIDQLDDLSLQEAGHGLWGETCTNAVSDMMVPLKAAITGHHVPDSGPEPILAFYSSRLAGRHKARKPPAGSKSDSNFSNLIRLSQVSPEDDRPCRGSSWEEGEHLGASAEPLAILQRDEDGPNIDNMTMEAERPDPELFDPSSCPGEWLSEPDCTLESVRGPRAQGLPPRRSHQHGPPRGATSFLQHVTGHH
Sequence of Cyclin-dependent kinase 5 (Homo sapiens) (Q00535 whole entry, looked up): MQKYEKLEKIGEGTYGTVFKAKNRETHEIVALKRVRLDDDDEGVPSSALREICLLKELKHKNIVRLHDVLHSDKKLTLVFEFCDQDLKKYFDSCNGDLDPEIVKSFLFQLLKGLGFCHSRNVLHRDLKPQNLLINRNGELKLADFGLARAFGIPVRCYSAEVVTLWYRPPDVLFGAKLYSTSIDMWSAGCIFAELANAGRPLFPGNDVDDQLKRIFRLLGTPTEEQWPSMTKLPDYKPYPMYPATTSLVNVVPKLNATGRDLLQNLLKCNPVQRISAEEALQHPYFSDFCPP

Compound `O=C(NCc1ncc(C(F)(F)F)cc1Cl)c1ccc2c(c1)C1(CCS(=O)(=O)CC1)[C@H](C1CC1)N2S(=O)(=O)c1ccc(F)cc1` [BAY-784] has a residual activity [1] of 100%, a residual activity [2] of 100% and a residual activity [3] of 96%. For the same compound, the residual activity [4] was 78%, the residual activity [5] was 68% and the residual activity [6] was 98%. The residual activity [7] was 100%, the residual activity [8] was 0% and the residual activity [9] was 100%. The residual activity [10] was 100%, the residual activity [11] was 86% and the residual activity [12] was 100%. It also gave a residual activity [13] of 73%, a residual activity [14] of 100% and a residual activity [15] of 81%. It also gave a residual activity [16] of 100%, a residual activity [17] of 100% and a residual activity [18] of 100%. For the same compound, the residual activity [19] was 100%, the residual activity [20] was 100% and the residual activity [21] was 77%. It also gave a residual activity [22] of 100%, a residual activity [23] of 54% and a residual activity [24] of 88%. For the same compound, the residual activity [25] was 100%, the residual activity [26] was 91% and the residual activity [27] was 94%. For the same compound, the residual activity [28] was 100%, the residual activity [29] was 100% and the residual activity [30] was 100%. The residual activity [31] was 100%, the residual activity [32] was 92% and the residual activity [33] was 100%. It also gave a residual activity [34] of 94%, a residual activity [35] of 100% and a residual activity [36] of 70%. The residual activity [37] was 100%, the residual activity [38] was 84% and the residual activity [39] was 100%. The residual activity [40] was 95% and the inhibition [41] was -2.87%.

Work on `O=C(NCc1ncc(C(F)(F)F)cc1Cl)c1ccc2c(c1)C1(CCS(=O)(=O)CC1)[C@@H](C1CC1)N2S(=O)(=O)c1ccc(F)cc1` [BAY-786] yielded a residual activity [1] of 97%, a residual activity [2] of 86% and a residual activity [3] of 76%. For the same compound, the residual activity [4] was 100%, the residual activity [5] was 1.9% and the residual activity [6] was 92%. The residual activity [7] was 100%, the residual activity [8] was 89% and the residual activity [9] was 100%. It also gave a residual activity [10] of 82%, a residual activity [11] of 100% and a residual activity [12] of 85%. It also gave a residual activity [13] of 74%, a residual activity [14] of 67% and a residual activity [15] of 67%. The residual activity [16] was 99%, the residual activity [17] was 100% and the residual activity [18] was 100%. The residual activity [19] was 97%, the residual activity [20] was 97% and the residual activity [21] was 82%. The residual activity [22] was 90%, the residual activity [23] was 94% and the residual activity [24] was 78%. For the same compound, the residual activity [25] was 100%, the residual activity [26] was 94% and the residual activity [27] was 83%. It also gave a residual activity [28] of 94%, a residual activity [29] of 80% and a residual activity [30] of 80%. It also gave a residual activity [31] of 99%, a residual activity [32] of 77% and a residual activity [33] of 100%. It also gave a residual activity [34] of 92%, a residual activity [35] of 100% and a residual activity [36] of 57%. For the same compound, the residual activity [37] was 89%, the residual activity [38] was 77% and the residual activity [39] was 91%. The residual activity [40] was 98% and the inhibition [41] was -0.77%.
